# Reference: the OPERA property sets (Mansouri et al. 2018)
# Details: not given
Compound,log10 vapour pressure (mmHg),melting point [°C],boiling point [°C],log10 Koc (L/kg),ready biodegradability,log10 biodegradation half-life (days),log10 Henry constant (atm·m³/mol),log10 Koa
CNC(=O)CSP(=O)(OC)OC,-4.61,-28,–,–,–,–,–,–
CC(C)(C)CCCl,–,–,115,–,–,–,–,–
C[C@@H]1O[C@@H](O[C@H]2CC[C@]3(C=O)[C@H]4CC[C@]5(C)[C@@H](c6ccc(=O)oc6)CC[C@]5(O)[C@@H]4CC[C@]3(O)C2)[C@H](O)[C@H](O)[C@H]1O[C@@H]1O[C@H](CO)[C@@H](O)[C@H](O)[C@H]1O,–,284,–,–,–,–,–,–
ClCCC(Cl)(Cl)Cl,–,–,157,–,–,–,–,–
COc1nc(NC(C)C)nc(NC(C)C)n1,-5.64,91.5,–,2.6,–,–,–,–
NCCc1ccccc1,–,-60,198,–,readily biodegradable,–,–,–
COc1cc([C@@H]2c3cc4c(c(O)c3C[C@H]3COC(=O)[C@@H]32)OCO4)cc(OC)c1OC,–,234,–,–,–,–,–,–
O=C(O)c1c(F)ccc(F)c1F,–,130,–,–,–,–,–,–
OCCN(CCO)CCO,-5.44,20.5,335,–,not readily biodegradable,–,–,–
CCC(Br)(CC)C(N)=O,–,67,–,–,–,–,–,–
CSc1ccccc1N,–,–,234,–,–,–,–,–
O=C1c2c(O)cccc2Cc2cccc(O)c21,–,179,–,–,–,–,–,–
CCCCCCCCCCCCCCCCCC#N,–,41,362,–,–,–,–,–
O=C(O)c1cc(I)c(I)c(I)c1,–,292,–,–,–,–,–,–
COc1cc(C[C@H]2c3cc(OC)c(OC)cc3CCN2C)c(Oc2cc3c(cc2OC)-c2c(OC)c(OC)cc4c2[C@H](C3)N(C)CC4)cc1OC,–,160,–,–,–,–,–,–
c1ccc(NC2CCCCC2)cc1,–,16,279,–,–,–,–,–
CC(C)(C)OOC(C)(C)CCC(C)(C)OOC(C)(C)C,–,8,–,–,not readily biodegradable,–,–,–
CSc1nnc(C(C)(C)C)c(=O)n1/N=C/C(C)C,-6.46,159,–,–,–,–,–,–
CCOc1ccc(Br)cc1,–,4,231,–,–,–,–,–
CC(=O)Nc1ccc(F)cc1,–,154,–,1.48,–,–,–,–
CCCCc1ccc(C=O)cc1,–,–,–,–,not readily biodegradable,–,–,–
CCN(CC)C(=O)/C(Cl)=C(/C)OP(=O)(OC)OC,-4.78,-45,–,–,–,–,–,–
COC(=O)c1cccc(Br)c1,–,32,–,–,–,–,–,–
CC(O)CN(C)C (stereo not given),–,124,124,–,–,–,–,–
C[C@H]1CC[C@@H]2[C@H](C1)C2(C)C,–,–,169,–,–,–,–,–

Compound,log10 vapour pressure (mmHg),melting point [°C],boiling point [°C],log10 Koc (L/kg),ready biodegradability,log10 biodegradation half-life (days),log10 Henry constant (atm·m³/mol),log10 Koa
CC1CN(C2CCCCCCCCCCC2)CC(C)O1 (stereo not given),-5.44,71,–,–,–,–,–,–
Cc1ccc2nc3sc(=O)sc3nc2c1,-6.7,170,–,3.36,–,–,–,–
Cc1ccccc1N=Cc1ccccc1,–,–,314,–,–,–,–,–
C=C1CC[C@H]2O[C@]2(C)CC[C@@H]2[C@@H]1CC2(C)C,–,62.5,–,–,–,–,–,–
c1ccc2c3c(ccc2c1)-c1cccc2cccc-3c12,–,166,–,–,–,2.48,–,–
C=C(CC)C(C)C,–,–,89,–,–,–,–,–
CCC1(c2ccccc2)C(=O)NC(=O)N(C)C1=O (stereo not given),–,176,–,–,–,–,–,–
CCS(=O)(=O)c1ccc(F)cc1,–,41,–,–,–,–,–,–
CCC(=O)c1cccc(C)c1,–,–,235,–,–,–,–,–
COc1cc2c(cc1OC)[C@@]13CCN4CC5=CCO[C@H]6CC(=O)N2[C@H]1[C@H]6[C@H]5C[C@H]43,–,178,–,–,–,–,–,–
C=CI,–,–,56,–,–,–,–,–
CCCC(C)(C)CCC,–,–,135,–,–,–,–,–
CC(CC1CCCCC1)C1CCCCC1 (stereo not given),–,-22,284,–,–,–,–,–
CCOC,3.17,-113,7.4,–,–,–,–,–
CC(=O)N(CC(O)CO)c1c(I)c(C(=O)NCC(O)CO)c(I)c(C(=O)NCC(O)CO)c1I (stereo not given),–,177,–,–,–,–,–,–
c1cnccn1,1.03,55,115,–,readily biodegradable,–,–,–
CCC(N)CC,–,–,89,–,–,–,–,–
C=CC(C)(CCC=C(C)C)OC(C)=O (stereo not given),-0.955,–,220,–,–,–,–,–
COC(=O)CC(=O)C(C)(C)C,–,–,–,–,not readily biodegradable,–,–,–
CCCC(C)(C)O,0.934,-103,121,–,–,–,–,–
CCCOCCC,1.8,-122,90,–,–,–,-2.66,2.97
ClC=C(Cl)C(Cl)Cl,–,–,162,–,–,–,–,–
ON=C1CCCCC1,-1.55,90,206,–,–,–,–,–
CC(C)(Oc1ccc(Cl)cc1)C(=O)OCCCOC(=O)C(C)(C)Oc1ccc(Cl)cc1,–,52,–,–,–,–,–,–
C=C(C)C(=O)OC(C)C,–,–,125,–,–,–,–,–

Compound,log10 vapour pressure (mmHg),melting point [°C],boiling point [°C],log10 Koc (L/kg),ready biodegradability,log10 biodegradation half-life (days),log10 Henry constant (atm·m³/mol),log10 Koa
CC(C)N1C(=O)N(c2ccccc2)CSC1=NC(C)(C)C,-5.03,105,–,–,–,–,–,–
CCOC(OCC)C(Cl)Cl,–,–,184,–,–,–,–,–
CNCCS(=O)(=O)O,–,242,–,–,readily biodegradable,–,–,–
CCCCC1C(=O)NC(=O)N(C2CCCCC2)C1=O (stereo not given),–,84,–,–,–,–,–,–
CC(F)(F)C(Cl)(Cl)Cl,–,–,73,–,–,–,–,–
O=[N+]([O-])C1CCCCC1,–,-34,205,–,–,–,–,–
Oc1cccc2[nH]ccc12,–,100,–,–,–,–,–,–
Nc1nc(N)nc(-c2cc(Cl)ccc2Cl)n1,–,268,–,–,–,–,–,–
C=C/C=C\CC1=C(C)[C@@H](OC(=O)[C@@H]2[C@@H](C=C(C)C)C2(C)C)CC1=O,-4.69,–,–,–,–,–,–,–
CC(C)N(C)C,–,–,66,–,–,–,–,–
Cn1c(=O)ccc2ccccc21,–,74,325,–,–,–,–,–
O=C(O)c1cc(O)c2ccccc2n1,–,282,–,–,–,–,–,–
O=C(O)c1c(Br)c(O)c(O)c(O)c1Br,–,150,–,–,–,–,–,–
CC(C)CC(C)Nc1ccc(Nc2ccccc2)cc1 (stereo not given),–,–,–,–,not readily biodegradable,–,–,–
CC(=O)c1ccc(Cl)cc1,–,20,232,–,–,–,–,–
CCOc1ccc(Cl)cc1Cl,–,32,237,–,–,–,–,–
CC1(C(=O)O)CCCCC1,–,37.5,234,–,–,–,–,–
O=[N+]([O-])c1cc(S(=O)(=O)c2ccc(F)c([N+](=O)[O-])c2)ccc1F,–,194,–,–,–,–,–,–
Cc1cc(Cl)c(C)cc1Cl,–,71,222,–,–,–,–,–
CC(C)(C)c1ccc(C(C)(C)C)o1,–,–,210,–,–,–,–,–
CCCCCC(=O)Cl,–,-87,153,–,–,–,–,–
CCCCN(C)C,–,–,95,–,–,–,–,–
O=C(O)c1ccc(O)cc1,-6.72,214,–,1.43,readily biodegradable,–,–,8.08
CC(N)Cc1ccc(O)cc1 (stereo not given),–,126,–,–,–,–,–,–
C[Si](Cn1cncn1)(c1ccc(F)cc1)c1ccc(F)cc1,–,54,–,3.22,–,–,–,–

Compound,log10 vapour pressure (mmHg),melting point [°C],boiling point [°C],log10 Koc (L/kg),ready biodegradability,log10 biodegradation half-life (days),log10 Henry constant (atm·m³/mol),log10 Koa
CCOCCOC(=O)C(C)Oc1ccc(Oc2ncc(C(F)(F)F)cc2Cl)cc1 (stereo not given),-10.9,60,–,–,–,–,–,–
OCC(S)CS (stereo not given),-2.3,–,–,–,–,–,–,–
ClC=C(Cl)C(Cl)=CCl,–,-4,188,–,–,–,–,–
CC(=O)c1cccc([N+](=O)[O-])c1,–,81,202,–,–,–,–,–
CCCCNC(=O)c1ccc2cc(O)c(O)cc2c1,–,194,–,–,–,–,–,–
CCOCCBr,–,–,128,–,–,–,–,–
CC=CCCC,–,–,–,–,not readily biodegradable,–,–,–
CC(C)[C@@H]1CC[C@@H](C)[C@H](O)C1,–,–,218,–,–,–,–,–
O=C(c1ccccc1)c1cccc(C(F)(F)F)c1,–,52.5,–,–,–,–,–,–
NS(=O)(=O)c1cc2c(cc1C(F)(F)F)NCNS2(=O)=O,–,270,–,–,–,–,–,–
N#Cc1cccs1,–,–,192,–,–,–,–,–
C[N+]1([O-])[C@@H]2C[C@@H](OC(=O)[C@H](CO)c3ccccc3)C[C@H]1[C@@H]1O[C@@H]12 (stereo not given in full),–,80,–,–,–,–,–,–
Cn1c(=O)cc[nH]c1=O,-3.15,–,–,–,–,–,–,–
CCOP(=S)(Oc1cnc(C(C)(C)C)nc1)OC(C)C (stereo not given),-4.43,–,–,–,–,–,–,–
CC(CC(=O)O)C(=O)O (stereo not given),–,118,–,–,–,–,–,–
O=Cc1ccc(Cl)c(Cl)c1,–,44,248,–,–,–,–,–
CNc1ccccc1C(=O)OC,–,19,255,–,–,–,–,–
CCCCCCCCCCCCCCCC(=O)OC/C=C(C)/C=C/C=C(C)/C=C/C1=C(C)CCCC1(C)C,–,28.5,–,–,–,–,–,–
C=CCCCO,–,–,141,–,–,–,–,–
CCCCN(CCCC)N=O,-1.33,–,–,–,–,–,–,–
Cc1ccc(N=C=S)cc1,–,25.5,237,–,–,–,–,–
C1CCCCC1,1.99,6.6,80.7,–,not readily biodegradable,1.7,-0.824,2.74
c1ccc2c(c1)cc1ccc3cccc4ccc2c1c34,-8.26,176,495,5.95,–,2.35,-6.34,–
NNC(=O)c1ccccc1[N+](=O)[O-],–,124,–,–,–,–,–,–
CCCCC=CC=O,–,–,166,–,–,–,–,–

Compound,log10 vapour pressure (mmHg),melting point [°C],boiling point [°C],log10 Koc (L/kg),ready biodegradability,log10 biodegradation half-life (days),log10 Henry constant (atm·m³/mol),log10 Koa
CC(=O)OCCc1ccccc1,-1.5,-31.1,233,1.89,–,–,–,–
O=C(O)c1cccc2c(Cl)cccc12,–,245,–,–,–,–,–,–
CN1C(=O)C(=O)c2ccccc21,–,132,–,–,–,–,–,–
CCN(CC)CCOc1ccc2nc(N(C)C)sc2c1.Cl.Cl,–,242,–,–,–,–,–,–
Clc1ccc(-c2ccc(Cl)c(Cl)c2)c(Cl)c1,-4.33,–,–,–,–,–,-3.92,9.02
FC(F)COC(F)F,2.36,–,55.3,–,–,–,–,–
Clc1nc2ccccc2s1,–,24,248,–,–,–,–,–
CN(C)C(=O)SCCCCOc1ccccc1,-5.9,40.5,–,–,–,–,–,–
O=[N+]([O-])c1ccc(N=Nc2ccc(O)cc2)cc1,-9.52,–,–,–,–,–,–,–
CCCCOCCOC(=O)COc1ccc(Cl)cc1Cl,-5.35,–,–,–,–,–,–,–
CN(C)c1cccc(C(=O)O)c1,–,–,–,–,not readily biodegradable,–,–,–
O=c1oc2ccccc2c(O)c1C1CC(c2ccc(-c3ccc(Br)cc3)cc2)Cc2ccccc21 (stereo not given),–,230,–,–,–,–,–,–
CCOC(C)(C)OCC,–,–,114,–,–,–,–,–
C[Si](C)(C)O[Si](C)(C)O[Si](C)(C)O[Si](C)(C)O[Si](C)(C)O[Si](C)(C)O[Si](C)(C)O[Si](C)(C)O[Si](C)(C)O[Si](C)(C)O[Si](C)(C)C,–,–,323,–,–,–,–,–
COC(C)C,2.78,–,30.7,–,–,–,–,–
CC1(OO)CCC2CC1C2(C)C (stereo not given),–,–,–,–,not readily biodegradable,–,–,–
Cc1cc[nH]c1,–,-48.4,143,–,–,–,–,–
C[C@@H]1CC2=CC(=O)CC[C@]2(C)[C@H]2CC[C@@]3(C)[C@@H](CC[C@]3(C)O)[C@H]12,–,146,–,–,–,–,–,–
Cc1cc(C)c(C)c(C)n1,–,–,203,–,–,–,–,–
CC(C)(O)CCO,–,–,202,–,–,–,–,–
C[N+](C)(C)CCOC(=O)NCCCCCCNC(=O)OCC[N+](C)(C)C.[Br-].[Br-],–,175,–,–,–,–,–,–

# Same assay, conditions: fish
Compound,log10 BCF,log10 biotransformation half-life (days)
OCCN(CCO)CCO,0.59,–
NC(=O)c1c(Cl)c(Cl)c(Cl)c(Cl)c1C(=O)O,0.49,–
CC(C)(C)OOC(C)(C)CCC(C)(C)OOC(C)(C)C,3.48,0.77
C1CCCCC1,1.92,-0.66
c1ccc2c(c1)cc1ccc3cccc4ccc2c1c34,–,0.05
Clc1ccc(-c2ccc(Cl)c(Cl)c2)c(Cl)c1,–,2.07
